What was measured:
[1] = test system: Human Rhinovirus 14 (HRV14); test: H1-HeLa HRV-CTG EC50, HRV14; format: cell-based; settings: Rhinovirus B, 96 h; H1-HeLa cells, HRV14, MOI 1.0, 4 days, Celltiter-Glo; read-out: EC50 H1-HeLa_HRV14_HRV-CTG 384-well Assay (per Ex Z)
From the text: Example Z: H1-HeLa HRV-CTG EC50
H1-Hela cell line (ATCC, Manassas, VA, Cat #CRL-1958) was maintained in Dulbecco's […] Essential Medium (DMEM) (Corning, New York, NY, Cat #15-018 CM) supplemented with 10% fetal bovine serum (FBS) (Hyclone, Logan, UT, Cat #SH30071-03), and 1× Penicillin-Streptomycin-L-Glutamine (Corning, New York, NY, Cat #30-009-CI). Cells were passaged 2 times per week to maintain sub-confluent densities and were used for experiments at passage 5-30. The Human Rhinovirus 1B (HRVIB) (ATCC, Manassas, VA, Cat #VR-1645), Human Rhinovirus 14 (HRV14) (ATCC, Manassas, VA, Cat #VR-284), and Human Rhinovirus 16 (HRV16) (ATCC, Manassas, VA, Cat #BR-283) was obtained through ATCC. Viral infection was monitored by determining viability of H1-HeLa cells as described below.
Test molecules are prepared in 100% DMSO in 384-well polypropylene plates (Greiner, Monroe, NC, Cat #784201) with 8 compounds per plate in grouped replicates of 4 at 10 serially diluted concentrations (1:3). […]
The test compounds were spotted to 384-well assay plates (Greiner, Monroe, NC, Cat #781091) at 200 nL per well using an Echo acoustic dispenser (Labcyte, Sunnyvale, CA). […] 40 μL per well of Celltiter-Glo reagent was added and the plates were incubated at room temperature for 15 minutes before reading the luminescence signal on an En Vision multimode plate reader (Perkin Elmer, Waltham, MA). […]

[2] = test system: RSV strain A2; test: RSV Cellomics assay for RSV A2 antiviral activity (EC50-RSV-Hep2-96-Cellomics); format: cell-based; settings: human respiratory syncytial virus, HEp-2, 72 h; Hep2 cells, RSV strain A2, MOI=0.05, 3 days, RSV F protein immunofluorescence; read-out: EC50-RSV-HEp2-96-Cellomics Example B1
Experimental: Example B1: RSV Cellomics Assay for RSV A2 Antiviral Activity (EC50-RSV-Hep2-96-Cellomics)
8×10^3 Hep2 cells are seeded into 96 well plates in 100 μL of media (DMEM supplemented with GlutaMAX, 10% FBS and Pen/Strep) and briefly spun at 50×g for 1 minute to attach cells. Cells were further allowed to attach with overnight incubation at 37° C.+5% CO2. The following day, the media was aspirated and 100 μL of fresh DMEM media containing 2% FBS was added. A three-fold dilution series of compounds of interest are then added to the plate using the Tecan D300e dispenser and the plate is normalized to the well with the highest volume of DMSO. The cells are next infected by adding 100 μL of media containing RSV strain A2 at an MOI=0.05 and the plates incubated for 3 days at 37° C.+5% CO2. Following the incubation, the media is removed, and the cells are washed once with 250 μL PBS and fixed with 250 μL ice-cold 100% methanol for 10 minutes at 4 C. The methanol is then removed and the plates air dried for 5 minutes and then washed once with 250 μL PBS to remove any residual methanol. The wells are then blocked 60 μL/well of BlockAid (B10710, Thermo-Fisher) for 1 hour at RT on rocker at which point the blocking buffer is carefully aspirated. Primary antibody against the RSV F protein (MAB 858-1) is then diluted 1:2000 in SuperBlock (37515, Thermo Fisher) and 50 μL of the primary antibody solution is added to each well. The plates are incubated at room temperature for 1 hour with gentle agitation and then washed with 250 μL of PBS-Tween 3 times. A goat anti-mouse AlexaFluor 647 conjugated secondary antibody (Sigma, A21235) is then diluted 1:2000 and Hoescht 33342 (H3570) at 1:1000 in SuperBlock and 50 μL added to the wells for 1 hour at 37° C. After incubation the antibody solution is aspirated, and the wells are then washed with 250 μL of PBS-Tween 3 times. To keep cells from drying out, 100 μL of PBS is added to each well and the plates are sealed with black plate seal. Fluorescence at the 647 nm wavelength is measured using a Cellomics CellInsight CX7 machine. Compound activity is determined as a percentage of the % positive cells (or average intensity) compared to DMSO treated RSV infected well controls following subtraction of uninfected controls. The EC50 values are then calculated using nonlinear regression analysis in GraphPad Prism.

`N#Cc1cc(F)cc(CO[C@H](COCCCCCCCCCCCCCCCCCC(F)(F)F)COP(=O)(O)OC[C@@]2(C#N)O[C@@H](c3ccc4c(N)ncnn34)[C@H](O)[C@@H]2O)c1` [Compound 1, ((2R,3S,4R,5S)-5-(4-aminopyrrolo[2,1-f][1,2,4]triazin-7-yl)-2-cyano-3,4-dihydroxytetrahydrofuran-2-yl)methyl ((R)-2-((3-cyano-5-fluorobenzyl)oxy)-3-((18,18,18-trifluorooctadecyl)oxy)propyl) hydrogen phosphate] was tested, and the EC50 [1] was 34 nM and the EC50 [2] was 76 nM.

`N#Cc1cc(F)cc(CO[C@H](CCCCCCCCCCCCCCCCCCC(F)(F)F)COP(=O)(O)OC[C@@]2(C#N)O[C@@H](c3ccc4c(N)ncnn34)[C@H](O)[C@@H]2O)c1` [Compound 2, ((2R,3S,4R,5S)-5-(4-aminopyrrolo[2,1-f][1,2,4]triazin-7-yl)-2-cyano-3,4-dihydroxytetrahydrofuran-2-yl)methyl ((R)-2-((3-cyano-5-fluorobenzyl)oxy)-21,21,21-trifluorohenicosyl) hydrogen phosphate] gave an EC50 [1] of 87 nM and an EC50 [2] of 241 nM.
